Assay results from the kinase profiling compilation of Christmann-Franck et al. (2016).

Key:
Test in all cases: radiometric filter-binding kinase assay, Kinase HotSpot
Conditions in all cases: compound 0.5 µM; ATP 10 µM
[1] = target: SRC (human) (UniProt P12931)
[2] = target: CDK6 CCND1 (human) (UniProt Q00534+P24385)
[3] = target: CDK4 CCND1 (human) (UniProt P24385+P11802)
[4] = target: PRKCZ (human) (UniProt Q05513)
[5] = target: CLK3 (human) (UniProt P49761)
[6] = target: WNK3 (human) (UniProt Q9BYP7)
[7] = target: TTK (human) (UniProt P33981)
[8] = target: FLT1 (human) (UniProt P17948)
[9] = target: LIMK1 (human) (UniProt P53667)
[10] = target: MAP4K2 (human) (UniProt Q12851)
[11] = target: FER (human) (UniProt P16591)
[12] = target: CSNK1E (human) (UniProt P49674)
[13] = target: GRK7 (human) (UniProt Q8WTQ7)
[14] = target: AURKC (human) (UniProt Q9UQB9)
[15] = target: MAPK12 (human) (UniProt P53778)
[16] = target: MAPK13 (human) (UniProt O15264)
[17] = target: CDK4 CCND3 (human) (UniProt P30281+P11802)
[18] = target: ACVR1 (human) (UniProt Q04771)
[19] = target: NLK (human) (UniProt Q9UBE8)
[20] = target: LRRK2 (human) (UniProt Q5S007)
[21] = target: AKT2 (human) (UniProt P31751)
[22] = target: DDR2 (human) (UniProt Q16832)
[23] = target: EPHA4 (human) (UniProt P54764)
[24] = target: DAPK2 (human) (UniProt Q9UIK4)
[25] = target: MAP3K7 TAB1 (human) (UniProt O43318+Q15750)
[26] = target: PLK3 (human) (UniProt Q9H4B4)
[27] = target: PIM2 (human) (UniProt Q9P1W9)
[28] = target: RPS6KA5 KD2 (human) (UniProt O75582)
[29] = target: WNK2 (human) (UniProt Q9Y3S1)
[30] = target: ERBB4 (human) (UniProt Q15303)
[31] = target: FGFR1 (human) (UniProt P11362)
[32] = target: CDC42BPB (human) (UniProt Q9Y5S2)
[33] = target: TSSK2 (human) (UniProt Q96PF2)
[34] = target: MAPKAPK3 (human) (UniProt Q16644)
[35] = target: PKN2 (human) (UniProt Q16513)
[36] = target: PDGFRB (human) (UniProt P09619)
[37] = target: SYK (human) (UniProt P43405)
[38] = target: MST4 (human) (UniProt Q9P289)
[39] = target: MAPK8 (human) (UniProt P45983)
[40] = target: TYRO3 (human) (UniProt Q06418)
[41] = target: RPS6KA4 KD2 (human) (UniProt O75676)
[42] = target: PRKCB2 (human) (UniProt P05771)

FLT1 (human), sequence (P17948 whole entry, looked up): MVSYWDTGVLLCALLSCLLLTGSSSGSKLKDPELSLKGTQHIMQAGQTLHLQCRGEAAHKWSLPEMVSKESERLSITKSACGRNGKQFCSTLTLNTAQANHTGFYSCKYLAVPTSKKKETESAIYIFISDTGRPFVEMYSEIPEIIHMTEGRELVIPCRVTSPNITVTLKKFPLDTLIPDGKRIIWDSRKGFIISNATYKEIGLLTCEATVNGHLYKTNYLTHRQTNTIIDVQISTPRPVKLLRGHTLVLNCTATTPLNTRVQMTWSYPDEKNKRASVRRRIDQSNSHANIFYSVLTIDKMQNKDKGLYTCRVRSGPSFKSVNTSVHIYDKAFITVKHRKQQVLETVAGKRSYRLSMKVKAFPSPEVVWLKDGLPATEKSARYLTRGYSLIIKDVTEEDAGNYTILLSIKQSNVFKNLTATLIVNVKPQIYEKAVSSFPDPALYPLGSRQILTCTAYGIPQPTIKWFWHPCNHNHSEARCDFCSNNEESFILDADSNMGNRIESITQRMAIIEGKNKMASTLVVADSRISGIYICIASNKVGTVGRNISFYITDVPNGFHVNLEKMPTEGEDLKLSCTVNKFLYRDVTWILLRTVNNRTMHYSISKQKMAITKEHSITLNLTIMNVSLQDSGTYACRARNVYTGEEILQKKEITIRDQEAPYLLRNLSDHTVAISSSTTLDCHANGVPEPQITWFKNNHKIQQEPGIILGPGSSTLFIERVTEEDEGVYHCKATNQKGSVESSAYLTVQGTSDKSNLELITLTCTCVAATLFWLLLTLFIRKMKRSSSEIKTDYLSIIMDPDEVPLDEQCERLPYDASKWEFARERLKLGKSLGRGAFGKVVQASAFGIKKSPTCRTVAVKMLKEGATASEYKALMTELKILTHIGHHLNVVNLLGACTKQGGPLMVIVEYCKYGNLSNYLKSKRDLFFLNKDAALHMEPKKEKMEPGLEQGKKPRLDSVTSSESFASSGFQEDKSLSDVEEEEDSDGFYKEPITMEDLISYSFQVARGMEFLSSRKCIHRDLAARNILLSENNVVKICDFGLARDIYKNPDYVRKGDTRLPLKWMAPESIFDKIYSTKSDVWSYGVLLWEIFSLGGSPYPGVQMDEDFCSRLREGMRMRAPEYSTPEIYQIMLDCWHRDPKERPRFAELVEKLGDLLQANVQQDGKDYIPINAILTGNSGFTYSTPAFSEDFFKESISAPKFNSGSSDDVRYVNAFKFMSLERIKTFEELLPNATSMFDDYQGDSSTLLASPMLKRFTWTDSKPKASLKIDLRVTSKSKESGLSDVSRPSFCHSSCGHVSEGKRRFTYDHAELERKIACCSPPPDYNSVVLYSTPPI
PLK3 (human), sequence (Q9H4B4 whole entry, looked up): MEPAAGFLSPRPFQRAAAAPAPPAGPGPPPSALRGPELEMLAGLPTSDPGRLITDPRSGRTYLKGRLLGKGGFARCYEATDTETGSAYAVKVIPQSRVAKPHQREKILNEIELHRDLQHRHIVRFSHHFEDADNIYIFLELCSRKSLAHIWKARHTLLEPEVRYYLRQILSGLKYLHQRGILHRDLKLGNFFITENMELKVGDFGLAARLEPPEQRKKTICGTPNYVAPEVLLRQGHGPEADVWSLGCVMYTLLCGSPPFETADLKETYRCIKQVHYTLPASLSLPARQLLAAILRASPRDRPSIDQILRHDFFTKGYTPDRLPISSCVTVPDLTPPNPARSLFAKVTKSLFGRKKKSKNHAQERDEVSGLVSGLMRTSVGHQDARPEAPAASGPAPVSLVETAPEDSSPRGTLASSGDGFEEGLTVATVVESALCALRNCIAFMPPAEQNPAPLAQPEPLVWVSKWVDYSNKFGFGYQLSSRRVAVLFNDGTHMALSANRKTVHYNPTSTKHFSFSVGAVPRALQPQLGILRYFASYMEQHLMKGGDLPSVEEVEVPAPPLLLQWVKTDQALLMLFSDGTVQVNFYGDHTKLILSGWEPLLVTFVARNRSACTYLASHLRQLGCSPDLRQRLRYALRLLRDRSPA
TYRO3 (human), sequence (Q06418 whole entry, looked up): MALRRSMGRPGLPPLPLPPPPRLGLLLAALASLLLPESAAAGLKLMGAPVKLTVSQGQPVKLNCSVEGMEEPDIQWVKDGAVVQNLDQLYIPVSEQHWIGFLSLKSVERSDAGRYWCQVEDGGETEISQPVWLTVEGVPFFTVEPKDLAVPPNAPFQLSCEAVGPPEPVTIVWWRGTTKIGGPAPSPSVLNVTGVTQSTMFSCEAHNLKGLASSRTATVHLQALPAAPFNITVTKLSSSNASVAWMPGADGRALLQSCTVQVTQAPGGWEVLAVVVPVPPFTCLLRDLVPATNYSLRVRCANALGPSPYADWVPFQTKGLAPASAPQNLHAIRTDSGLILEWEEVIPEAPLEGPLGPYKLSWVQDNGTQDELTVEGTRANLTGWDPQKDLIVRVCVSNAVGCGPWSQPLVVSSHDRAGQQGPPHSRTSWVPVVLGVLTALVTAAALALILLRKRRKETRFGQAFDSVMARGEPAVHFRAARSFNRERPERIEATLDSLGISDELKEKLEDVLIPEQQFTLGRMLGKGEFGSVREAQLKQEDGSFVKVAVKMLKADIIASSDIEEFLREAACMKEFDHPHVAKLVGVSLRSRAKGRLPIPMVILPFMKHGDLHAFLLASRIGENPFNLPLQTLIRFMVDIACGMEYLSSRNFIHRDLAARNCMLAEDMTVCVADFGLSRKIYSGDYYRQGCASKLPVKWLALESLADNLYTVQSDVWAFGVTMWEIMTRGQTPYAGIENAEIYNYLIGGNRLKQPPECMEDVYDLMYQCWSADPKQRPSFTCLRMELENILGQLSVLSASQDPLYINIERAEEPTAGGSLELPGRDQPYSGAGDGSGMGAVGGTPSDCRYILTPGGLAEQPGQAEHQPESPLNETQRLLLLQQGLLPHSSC
CLK3 (human), sequence (P49761 whole entry, looked up): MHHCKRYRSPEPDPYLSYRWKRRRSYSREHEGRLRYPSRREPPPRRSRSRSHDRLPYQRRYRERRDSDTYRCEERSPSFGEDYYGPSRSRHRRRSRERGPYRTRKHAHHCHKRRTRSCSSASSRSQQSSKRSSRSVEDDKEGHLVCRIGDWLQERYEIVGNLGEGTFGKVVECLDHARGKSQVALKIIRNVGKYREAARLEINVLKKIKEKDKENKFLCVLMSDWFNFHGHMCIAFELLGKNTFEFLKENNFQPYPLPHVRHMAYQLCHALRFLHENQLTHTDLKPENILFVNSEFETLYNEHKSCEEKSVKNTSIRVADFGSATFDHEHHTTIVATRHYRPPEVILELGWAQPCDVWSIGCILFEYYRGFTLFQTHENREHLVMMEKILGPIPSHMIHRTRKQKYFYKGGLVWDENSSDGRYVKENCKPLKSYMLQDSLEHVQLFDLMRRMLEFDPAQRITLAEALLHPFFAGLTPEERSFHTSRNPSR
FER (human), sequence (P16591 whole entry, looked up): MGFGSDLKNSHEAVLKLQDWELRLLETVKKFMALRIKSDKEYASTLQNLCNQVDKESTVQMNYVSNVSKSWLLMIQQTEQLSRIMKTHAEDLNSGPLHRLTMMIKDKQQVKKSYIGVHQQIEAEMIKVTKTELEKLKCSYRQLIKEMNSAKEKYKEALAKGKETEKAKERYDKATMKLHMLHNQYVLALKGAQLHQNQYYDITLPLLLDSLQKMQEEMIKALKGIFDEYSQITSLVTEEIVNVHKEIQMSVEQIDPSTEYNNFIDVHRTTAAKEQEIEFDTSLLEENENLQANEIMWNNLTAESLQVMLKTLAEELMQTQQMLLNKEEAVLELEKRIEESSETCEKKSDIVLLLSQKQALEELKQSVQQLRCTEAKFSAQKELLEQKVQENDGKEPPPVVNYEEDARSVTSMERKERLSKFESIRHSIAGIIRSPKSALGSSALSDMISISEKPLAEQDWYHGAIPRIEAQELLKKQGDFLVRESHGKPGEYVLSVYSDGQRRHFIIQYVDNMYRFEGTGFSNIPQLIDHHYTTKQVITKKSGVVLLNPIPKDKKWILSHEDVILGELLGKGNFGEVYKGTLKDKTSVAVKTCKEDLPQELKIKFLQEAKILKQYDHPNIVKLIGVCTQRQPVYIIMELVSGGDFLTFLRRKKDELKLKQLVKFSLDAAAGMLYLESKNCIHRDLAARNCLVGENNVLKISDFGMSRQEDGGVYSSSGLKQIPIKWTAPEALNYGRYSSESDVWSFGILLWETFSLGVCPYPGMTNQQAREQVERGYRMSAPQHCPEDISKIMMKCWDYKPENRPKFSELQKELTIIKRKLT
RPS6KA5 KD2 (human), sequence (O75582 whole entry, looked up): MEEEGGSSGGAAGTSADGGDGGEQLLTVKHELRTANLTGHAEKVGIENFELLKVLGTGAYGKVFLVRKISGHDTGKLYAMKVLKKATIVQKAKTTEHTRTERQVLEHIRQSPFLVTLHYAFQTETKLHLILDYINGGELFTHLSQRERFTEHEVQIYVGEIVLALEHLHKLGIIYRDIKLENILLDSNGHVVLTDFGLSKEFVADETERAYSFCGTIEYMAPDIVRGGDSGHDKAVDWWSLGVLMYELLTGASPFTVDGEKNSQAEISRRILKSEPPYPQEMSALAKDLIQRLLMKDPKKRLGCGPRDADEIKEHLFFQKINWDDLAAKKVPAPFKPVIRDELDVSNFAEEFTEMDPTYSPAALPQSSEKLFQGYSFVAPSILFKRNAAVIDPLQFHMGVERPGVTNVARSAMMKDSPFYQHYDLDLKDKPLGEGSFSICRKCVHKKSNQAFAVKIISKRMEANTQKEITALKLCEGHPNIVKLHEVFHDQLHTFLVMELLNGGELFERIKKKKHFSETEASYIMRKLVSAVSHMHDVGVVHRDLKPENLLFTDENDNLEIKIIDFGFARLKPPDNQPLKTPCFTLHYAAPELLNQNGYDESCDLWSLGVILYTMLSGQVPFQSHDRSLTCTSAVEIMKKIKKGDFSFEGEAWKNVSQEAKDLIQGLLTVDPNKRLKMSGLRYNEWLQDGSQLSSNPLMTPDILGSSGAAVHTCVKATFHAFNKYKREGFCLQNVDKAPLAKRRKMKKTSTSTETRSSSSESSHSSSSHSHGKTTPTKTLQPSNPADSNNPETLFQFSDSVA

N#C/C(=C1/Nc2ccccc2S1)c1ccnc(NCCc2cccnc2)n1 showed a residual activity [1] of 86.8%, a residual activity [2] of 89.7% and a residual activity [3] of 90.4%. For the same compound, the residual activity [4] was 102%, the residual activity [5] was 88.5% and the residual activity [6] was 81.3%. The residual activity [7] was 80.9%, the residual activity [8] was 74% and the residual activity [9] was 90.2%. It also gave a residual activity [10] of 76.9%, a residual activity [11] of 91% and a residual activity [12] of 74.9%. For the same compound, the residual activity [13] was 113%, the residual activity [14] was 96% and the residual activity [15] was 96.7%. The residual activity [16] was 100%, the residual activity [17] was 85.7% and the residual activity [18] was 100%. For the same compound, the residual activity [19] was 94.9%, the residual activity [20] was 83.4% and the residual activity [21] was 104%. It also gave a residual activity [22] of 94.5%, a residual activity [23] of 104% and a residual activity [24] of 119%. It also gave a residual activity [25] of 91.5%, a residual activity [26] of 94.7% and a residual activity [27] of 91.2%. For the same compound, the residual activity [28] was 98.9%, the residual activity [29] was 106% and the residual activity [30] was 83.1%. It also gave a residual activity [31] of 99%, a residual activity [32] of 95.2% and a residual activity [33] of 102%. For the same compound, the residual activity [34] was 102%, the residual activity [35] was 99.3% and the residual activity [36] was 103%. For the same compound, the residual activity [37] was 92.4%, the residual activity [38] was 104% and the residual activity [39] was 87.6%. For the same compound, the residual activity [40] was 98.3% and the residual activity [41] was 107%.

COc1cc2c(N3CCN(C(=O)Nc4ccc(OC(C)C)cc4)CC3)ncnc2cc1OCCCN1CCCCC1 showed a residual activity [1] of 102%, a residual activity [2] of 94.6% and a residual activity [3] of 92.5%. For the same compound, the residual activity [4] was 103%, the residual activity [5] was 93.4% and the residual activity [6] was 102%. The residual activity [7] was 100%, the residual activity [8] was 99.4% and the residual activity [9] was 88.6%. For the same compound, the residual activity [10] was 104%, the residual activity [11] was 104% and the residual activity [42] was 93.1%. The residual activity [12] was 99.1%, the residual activity [13] was 104% and the residual activity [14] was 97%. The residual activity [15] was 96.4%, the residual activity [16] was 99.3% and the residual activity [17] was 104%. It also gave a residual activity [18] of 145%, a residual activity [19] of 105% and a residual activity [20] of 123%. It also gave a residual activity [21] of 97.9%, a residual activity [22] of 102% and a residual activity [23] of 96.4%. It also gave a residual activity [24] of 104%, a residual activity [25] of 91.8% and a residual activity [26] of 99.3%. It also gave a residual activity [27] of 113%, a residual activity [28] of 109% and a residual activity [29] of 97.4%. The residual activity [30] was 97.3%, the residual activity [31] was 101% and the residual activity [32] was 100%. For the same compound, the residual activity [33] was 96.6%, the residual activity [34] was 103% and the residual activity [35] was 110%. For the same compound, the residual activity [37] was 102%, the residual activity [38] was 101% and the residual activity [39] was 105%. It also gave a residual activity [40] of 101% and a residual activity [41] of 120%.

For Nc1ncnc2c1cnn2-c1ccccc1, the residual activity [1] was 96.9%, the residual activity [2] was 94.7% and the residual activity [3] was 103%. It also gave a residual activity [4] of 96.3%, a residual activity [5] of 96.1% and a residual activity [6] of 97.2%. It also gave a residual activity [7] of 90.6%, a residual activity [8] of 88.5% and a residual activity [9] of 89.1%. It also gave a residual activity [10] of 94.9%, a residual activity [11] of 99% and a residual activity [42] of 96.5%. It also gave a residual activity [12] of 81.5%, a residual activity [13] of 100% and a residual activity [14] of 98.2%. The residual activity [15] was 90.6%, the residual activity [17] was 94% and the residual activity [18] was 101%. The residual activity [19] was 92.5%, the residual activity [20] was 99.3% and the residual activity [21] was 102%. For the same compound, the residual activity [22] was 92.3%, the residual activity [23] was 96.2% and the residual activity [24] was 96.7%. For the same compound, the residual activity [25] was 98.9%, the residual activity [26] was 94.6% and the residual activity [27] was 98.2%. It also gave a residual activity [28] of 89%, a residual activity [29] of 114% and a residual activity [30] of 101%. The residual activity [31] was 93%, the residual activity [32] was 96.7% and the residual activity [33] was 106%. The residual activity [34] was 96.6%, the residual activity [35] was 125% and the residual activity [36] was 94.7%. The residual activity [37] was 96%, the residual activity [38] was 82.2% and the residual activity [39] was 87.1%. The residual activity [40] was 102% and the residual activity [41] was 106%.
